We go through one compound from article PMC10529583, “A new polymodal gating model of the proton-activated chloride channel” (PLOS Biology, 2023).

Common to all, as to assay type: cell-based
Assay [1] deals with T1, human PAC channel (wt-PAC) (Homo sapiens, UniProt Q9H813).
T1 construct: gene PACC1; full-length, homotrimer; pCMV-blank, transiently expressed in PACC1-knockout HEK293T cells; library screen on endogenous PAC of HEK293T cells
The assay can be described thus: whole-cell patch clamp, inhibition of proton-evoked current. To be noted: pH 4.6, open-state pore site (site 2, second site), voltage ramp -70 to +80 mV. (In general: The patch-clamp technique gives a direct electrical read-out from membranes.)

In assay [2] the target is T2, human PAC channel (wt-PAC) (Homo sapiens, UniProt Q9H813, A321C).
T2 construct: gene PACC1; full-length, homotrimer; pCMV-blank, transiently expressed in PACC1-knockout HEK293T cells; library screen on endogenous PAC of HEK293T cells
T2 sequence (Q9H813 whole entry A321C): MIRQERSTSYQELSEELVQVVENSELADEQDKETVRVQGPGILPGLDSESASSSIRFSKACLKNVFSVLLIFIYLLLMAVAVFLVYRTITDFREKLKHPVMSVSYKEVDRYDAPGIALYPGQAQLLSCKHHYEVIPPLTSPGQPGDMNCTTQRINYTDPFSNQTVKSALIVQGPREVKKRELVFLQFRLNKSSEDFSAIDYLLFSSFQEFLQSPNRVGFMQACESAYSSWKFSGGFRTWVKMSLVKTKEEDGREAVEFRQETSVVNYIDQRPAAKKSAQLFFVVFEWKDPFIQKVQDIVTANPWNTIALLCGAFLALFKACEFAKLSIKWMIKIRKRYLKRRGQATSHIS
The assay is described as follows: whole-cell patch clamp, inhibition of basal current.

In assay [3] the target is T3, human PAC channel (wt-PAC) (Homo sapiens, UniProt Q9H813, A81C/L309A/P303A/T306A).
T3 construct: gene PACC1; full-length, homotrimer; pCMV-blank, transiently expressed in PACC1-knockout HEK293T cells; library screen on endogenous PAC of HEK293T cells
T3 sequence (Q9H813 whole entry A81C/P303A/T306A/L309A): as the sequence (Q9H813 whole entry A321C) above, with A81C, P303A, T306A, L309A, C321A counted along it
The assay is described as follows: whole-cell patch clamp, inhibition of current.

In assay [4] the target is T1, human PAC channel (wt-PAC). The assay can be described thus: whole-cell patch clamp, activation of proton-evoked current.
Assay [5] addresses T2, human PAC channel (wt-PAC). The assay is described as follows: whole-cell patch clamp, activation of current.
The target in assay [6] is T4, human PAC channel (wt-PAC) (Homo sapiens, UniProt Q9H813, F196A).
T4 construct: gene PACC1; full-length, homotrimer; pCMV-blank, transiently expressed in PACC1-knockout HEK293T cells; library screen on endogenous PAC of HEK293T cells
T4 sequence (Q9H813 whole entry F196A): as the sequence (Q9H813 whole entry A321C) above, with F196A, C321A counted along it
The assay is described as follows: whole-cell patch clamp, inhibition of current.

In assay [7] the target is T5, human PAC channel (wt-PAC) (Homo sapiens, UniProt Q9H813, F196A/R237A).
T5 construct: gene PACC1; full-length, homotrimer; pCMV-blank, transiently expressed in PACC1-knockout HEK293T cells; library screen on endogenous PAC of HEK293T cells
T5 sequence (Q9H813 whole entry F196A/R237A): as the sequence (Q9H813 whole entry A321C) above, with F196A, R237A, C321A counted along it
The assay is described as follows: whole-cell patch clamp, inhibition of current.

Assay [8] concerns the target T6, human PAC channel (wt-PAC) (Homo sapiens, UniProt Q9H813, R237A).
T6 construct: gene PACC1; full-length, homotrimer; pCMV-blank, transiently expressed in PACC1-knockout HEK293T cells; library screen on endogenous PAC of HEK293T cells
The assay can be described thus: whole-cell patch clamp, effect of […] compound on current. The conditions noted are these: root pH of the mutant; inhibited, not activated.

Assay [9] deals with T7, human PAC channel (wt-PAC) (Homo sapiens, UniProt Q9H813, P303A/T306A/L309A).
T7 construct: gene PACC1; full-length, homotrimer; pCMV-blank, transiently expressed in PACC1-knockout HEK293T cells; library screen on endogenous PAC of HEK293T cells
T7 sequence (Q9H813 whole entry P303A/T306A/L309A): as the sequence (Q9H813 whole entry A321C) above, with P303A, T306A, L309A, C321A counted along it
The assay can be described thus: whole-cell patch clamp, activation of current. The conditions noted are these: pH 5.34; activation (site 1).

Assay [10] concerns the target T8, human PAC channel (wt-PAC) (Homo sapiens, UniProt Q9H813, A81C).
T8 construct: gene PACC1; full-length, homotrimer; pCMV-blank, transiently expressed in PACC1-knockout HEK293T cells; library screen on endogenous PAC of HEK293T cells
The assay can be described thus: whole-cell patch clamp, inhibition of current.

T1 sequence (Q9H813 whole entry): as the sequence (Q9H813 whole entry A321C) above, with C321A counted along it
T8 sequence (Q9H813 whole entry A81C): as the sequence (Q9H813 whole entry A321C) above, with A81C, C321A counted along it
T6 sequence (Q9H813 whole entry R237A): as the sequence (Q9H813 whole entry A321C) above, with R237A, C321A counted along it

The term IC50 denotes the point on the concentration scale where inhibition reaches its midpoint. The low end stands for inhibition by little substance, the high end for a need for much substance. In general, EC50 refers to the concentration giving half of the maximal effect. The low end stands for a more potent agent, the high end for a less potent agent. For the compound `Cc1occc1C(=O)Nc1ccc(I)cc1C(=O)O` [C77304, 5–iodo–2–(2–methylfuran–3–carboxamido)benzoicacid], the IC50 in assay [1] is 8.3 ± 1.0 µM; in [2], 11.8 ± 1.9 µM; in assay [3], about 200 µM; in assay [6] it was 3 ± 0.5 µM; in assay [7], 5.7 ± 0.9 µM; in assay [10] it was 18.3 ± 3 µM. The EC50 is 0.6 ± 0.2 µM in [4] and 1 ± 0.4 µM in [5]. Moreover, the “whole-cell patch clamp, effect of 5 μM compound on current” value in assay [8] is “currents mediated by the PAC/R237A mutant, but not any others, were significantly inhibited”. The “whole-cell patch clamp, activation of current” value in assay [9] was “the P303A/T306A/L309A mutations did not affect the activation effect of C77304 on the channel”.
